According to patent US20120208873A1, “TEA POLYPHENOLS PRODUCTS FOR CEASING SMOKING AND TREATING AND/OR PREVENTING NICOTINE OR NICOTINE-DERIVED COMPOUNDS OR ESTROGEN INDUCED BREAST CANCER” (priority 2011, published 2012):
“Also recorded” adds a separate entry of the source.

How the values were obtained:
p53 = assay: ChIP assay of p53 binding to the α9-nAChR promoter in MCF-7 cells; format: cell-based, human; conditions: EGCG 10 μM pretreatment, Nic 10 μM
MCF-10A cells = assay: Cell proliferation (MTT assay) in normal MCF-10A cells; format: cell-based, human; conditions: Nic 10 μM or EGCG 10-25 μM
Experimental: (§1) Human mammary gland epithelial adenocarcinomas (MCF7, MDA-MB-231, AU-565, MDA-MB-453, and BT-483) and normal human mammary gland epithelial fibrocystic cell lines (MCF-10A and HBL-100) were purchased from ATCC (American Type Culture Collection, Manassas, Va., USA). MCF-7, MDA-MB-231, and MDA-MB-453 cells were maintained in DMEM, whereas BT-483 cells were maintained in RPMI-1640. Cell growth, proliferation, and viability were determined by the 3-(4,5-dimethylthiazol-2-yl)-2,5-diphenyltetrazolium (MTT) assay. The formazan product was measured by absorbance at 540 nm.

MCF-7 cells = assay: Cell proliferation (MTT assay) in MCF-7 cells; format: cell-based, human
Experimental: as §1

α9-nAChR protein = α9-nAChR protein levels by immunoblotting in MCF-7 cells; format: cell-based, human; conditions: MCF-7
Experimental: as §1
To prepare protein samples, cells were washed once with ice-cold PBS and lysed on ice in cell lysis buffer (50 mM Tris-HCl, pH 8.0, 120 mM […], 0.5% Nonidet P-40, 100 mM sodium fluoride, and 200 μM sodium orthovanadate) containing protease inhibitors as described previously (Shih, Y. L., Liu, H. C., Chen, C. S., Hsu, C. H. et al., J. Agric. Food Chem. 2010, 58, 235-241). Protein (50 μg) from each sample was resolved by 12% SDS-polyacrylamide gel electrophoresis, transferred, and analyzed by Western blotting. Antibodies were purchased from the following vendors: anti-total AKT and protein A/G agarose beads were obtained from Santa Cruz Biotechnology (Santa Cruz, Calif., USA); anti-GAPDH and anti-α9-nAChR antibodies were from Abcam (Cambridge, UK); antiphospho AKT (Ser^473), anti-c-Jun, and anti-c-Fos were from Cell Signaling Technology (Beverly, Mass., USA). The secondary antibodies, alkaline phosphatase-coupled anti-mouse, and anti-rabbit IgG were purchased from Santa Cruz Biotechnology. The specific protein complexes were identified with the chromogenic substrates nitro blue tetrazolium, and 5-bromo-4-chloro-3-indolyl-phosphate from KPL (Gaithersburg, Md., USA). In each experiment, proteins were also probed with anti-GAPDH antibodies as a protein-loading control.

α9-nAChR = molecular target: T1, α9-nAChR (Homo sapiens, UniProt Q9UGM1); assay: [^3H]-Nic equilibrium binding in MCF-7 cells
T1 construct: breast cancer cell proliferation induced by Nic could be mediated through endogenous α9-nAChR; endogenous in cells; host or cells: MCF-7 cell monolayers: wild type, scramble control (Sc) and α9-nAChR siRNA knockdown (Si) clones
Experimental: L-(−)-[N-methyl-^3H]-Nic ([^3[H]-Nic) (71-75 Ci/mmol) was purchased from Dupont/NEN Research Products (Boston, Mass., USA), and free-base Nic (99% pure) was purchased from The Eastman Kodak (Rochester, N.Y., USA). To study the uptake of [^3H]-Nic in MCF-7 cell monolayers (2×10^6 cells/well), cells were rinsed three times with a buffer containing 140 mM NaCl, 5.4 mM KCl, 1.8 mM CaCl2, 0.8 mM Mg504, 5 mM glucose, and 25 mM Hepes/Tris (pH 7.4). […] Nonspecific binding was determined by the addition of […] Nic. Total binding was evaluated for each concentration in quintuplicate, and blanks were determined in triplicate. The uptake of [^3H]-Nic was halted by aspiration of the uptake medium and washing of the wells three times with ice-cold buffer. The cells were lysed in 1 mL of 0.5% Triton X-100, and aliquots of the cell lysates were transferred to scintillation vials to determine the incorporated radioactivity by scintillation counting. Inhibition studies were carried out by adding various concentrations of unlabeled compounds to the uptake medium.

T1 sequence (Q9UGM1 26-479 limits assumed): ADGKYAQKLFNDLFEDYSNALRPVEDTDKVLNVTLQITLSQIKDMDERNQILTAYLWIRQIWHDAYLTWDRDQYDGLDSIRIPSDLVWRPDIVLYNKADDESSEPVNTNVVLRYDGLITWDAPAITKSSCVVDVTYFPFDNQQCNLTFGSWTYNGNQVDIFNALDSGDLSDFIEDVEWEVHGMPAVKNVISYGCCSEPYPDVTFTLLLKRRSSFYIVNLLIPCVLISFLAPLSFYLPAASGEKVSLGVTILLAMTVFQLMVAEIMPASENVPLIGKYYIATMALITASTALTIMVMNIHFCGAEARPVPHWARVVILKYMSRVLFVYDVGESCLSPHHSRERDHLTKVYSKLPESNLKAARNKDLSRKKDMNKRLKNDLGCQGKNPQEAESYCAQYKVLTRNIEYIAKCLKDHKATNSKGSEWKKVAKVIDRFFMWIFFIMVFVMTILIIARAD

O=C(O[C@@H]1Cc2c(O)cc(O)cc2O[C@@H]1c1cc(O)c(O)c(O)c1)c1cc(O)c(O)c(O)c1 [EGCG, (−)-epigallocatechin-3-gallate]
p53 binding to the α9-nAChR promoter (−125 to 0) (p53): not affected
cell number in normal breast epithelial cells (MCF-10A cells): no changes
Nic-induced cellular proliferation effects in (C) and (Sc) cells (MCF-7 cells; EGCG 10 μM, 24 h pretreatment, then Nic 10 μM 24 h): reversed
Nic-stimulated proliferation (MCF-7 cells; MCF-7, EGCG 10-25 μM, 24 h pretreatment, dose-dependent): blocked
cell proliferation in Nic-treated α9-nAChR (Si) cells compared with Sc cells (MCF-7 cells; combined treatment with EGCG 10 μM and Nic 10 μM): profoundly inhibited
Nic- and E2-induced upregulation of α9-nAChR protein after inhibitor pretreatment (α9-nAChR protein; 24 h pretreatment (LY294002 25 μM or EGCG 10 μM), then Nic 10 μM or E2 10 nM 24 h): almost completely inhibited; also recorded: significantly inhibited
α9-nAChR protein in Nic-treated cells (α9-nAChR protein; EGCG 1 μM with Nic 10 μM, 24 h): downregulated
α9-nAChR protein expression induced by either Nic or E2 (α9-nAChR protein; Nic 10 μM or E2 10 nM in presence of EGCG 1-10 μM, 24 h): significantly inhibited
[^3H]-Nic binding activity in α9-nAChR (Si) cells compared with Sc or wild-type cells (α9-nAChR; EGCG 10 μM 24 h pretreatment): profoundly inhibited
inhibition of [^3H]-Nic binding activity in (Si) cells compared with Sc or wild-type cells (α9-nAChR; EGCG pretreatment): > 90%
[^3H]-Nic binding activity, EGCG pretreated then washed group (α9-nAChR; MCF-7, EGCG 24 h, wash, then [^3H]-Nic 24 h): not significantly inhibited
[^3H]-Nic binding activity, EGCG cotreated group (α9-nAChR; MCF-7, [^3H]-Nic + EGCG cotreatment 24 h): not significantly inhibited
relative [^3H]-Nic binding activity, EGCG pretreated group (α9-nAChR; wild-type MCF-7, EGCG 10 μM 24 h, then [^3H]-Nic cotreatment 24 h): significantly blocked; also recorded: profoundly inhibited
